Test results: patent US20090209528A1, “SUBSTITUTED TETRAHYDROISOQUINOLINE COMPOUND, THEIR PREPARATION AND USE IN MEDICAMENTS” (LABORATORIOS DEL DR. ESTEVE S.A., priority 2006, published 2009)
Where a name gives a salt, the structure may show the parent alone.

Target: T1, 5HT6-human recombinant receptor (Homo sapiens, UniProt P50406)
T1 construct: purchased Receptor Biology; host or cells: HEK-293 cell membranes
Experiment: Binding to serotonin receptor 5-HT6 ([3H]-LSD displacement)
Settings: radioligand [3H]-LSD 2.7 nM; for inhibition at 0.01 µM / inhibition at 0.1 µM: 1 h; for inhibition at 0.01 µM: compound at 10 nM; for inhibition at 0.1 µM: compound at 100 nM; for Ki: membranes of HEK-293 cells expressing the receptor, 60 min, 37° C.
Procedure: Cell membranes of HEK-293 cells expressing the 5HT6-human recombinant receptor were supplied by Receptor Biology. In said membranes the receptor concentration is 2.18 pmol/mg protein and the protein concentration is 9.17 mg/ml. The experimental protocol follows the method of B. L. Roth et al. [B. L. Roth, S. C. Craigo, M. S. Choudhary, A. Uluer, F. J. Monsma, Y. Shen, H. Y. Meltzer, D. R. Sibley: Binding of Typical and Atypical Antipsychotic Agents to 5-Hydroxytryptamine-6 and Hydroxytryptamine-7 Receptors. The Journal of Pharmacology and Experimental Therapeutics, 1994, 268, 1403] with the following slight changes. The respective part of the literature description is hereby incorporated by reference and forms part of the disclosure.
The commercial membrane is diluted (1:40 dilution) with the binding buffer: 50 mM Tris-HCl, 10 mM MgCl2, 0.5 mM EDTA (pH 7.4). The radioligand used is [^3H]-LSD at a concentration of 2.7 nM with a final volume of 200 μl. Incubation is initiated by adding 100 μl of membrane suspension, (≈22.9 μg membrane protein), and is prolonged for 60 minutes at a temperature of 37° C. The incubation is ended by fast filtration in a Brandel Cell Harvester through fiber glass filters made by Schleicher & Schuell GF 3362 pretreated with a solution of polyethylenimine at 0.5%. The filters are washed three times with three milliliters of buffer Tris-HCl 50 mM pH 7.4. The filters are transferred to flasks and 5 ml of Ecoscint H liquid scintillation cocktail are added to each flask. The flasks are allowed to reach equilibrium for several hours before counting with a Wallac Winspectral 1414 scintillation counter. Non-specific binding is determined in the presence of 100 μM of serotonin. Tests were made in triplicate. The inhibition constants (Ki, nM) were calculated by non-linear regression analysis using the program EBDA/LIGAND described in Munson and Rodbard, Analytical Biochemistry, 1980, 107, 220, the respective part of which is hereby incorporated by reference and forms part of the disclosure.

T1 sequence (P50406 whole entry): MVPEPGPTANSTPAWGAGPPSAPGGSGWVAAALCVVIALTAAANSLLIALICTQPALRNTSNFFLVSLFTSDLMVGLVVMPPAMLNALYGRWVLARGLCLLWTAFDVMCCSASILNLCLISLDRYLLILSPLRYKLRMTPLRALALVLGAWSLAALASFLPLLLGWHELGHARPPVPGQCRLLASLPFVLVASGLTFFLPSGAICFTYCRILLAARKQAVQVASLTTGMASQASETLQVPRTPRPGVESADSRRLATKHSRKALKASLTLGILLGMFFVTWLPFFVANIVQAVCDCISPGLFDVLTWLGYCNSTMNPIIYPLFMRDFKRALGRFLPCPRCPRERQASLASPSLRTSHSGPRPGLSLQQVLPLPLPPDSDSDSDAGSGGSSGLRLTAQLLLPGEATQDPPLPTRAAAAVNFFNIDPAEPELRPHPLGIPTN

inhibition at 0.01 µM	inhibition at 0.1 µM	Ki	SMILES
5.6%	10.6%		CC(C)(C)OC(=O)N1CCc2cc(NS(=O)(=O)c3ccc4ccccc4c3)ccc2C1 [Example 16, 6-(Naphthalene-2-sulfonylamino)-3,4-dihydro-1H-isoquinoline-2-carboxylic acid tert-butyl ester]
45.5%	64.7%	54.6 nM	O=S(=O)(Nc1ccc2c(c1)CNCC2)c1cccc2nonc12 [Example 72, Benzo[1,2,5]oxadiazole-4-sulfonic acid (1,2,3,4-tetrahydro-isoquinolin-7-yl)-amide hydrochloride]
70.3%	84.1%	9.4 ± 3.7 nM	O=S(=O)(Nc1ccc2c(c1)CNCC2)c1ccc(Cl)c2ccccc12 [Example 81, 4-Chloro-naphthalene-1-sulfonic acid (1,2,3,4-tetrahydro-isoquinolin-7-yl)-amide hydrochloride]
53.3%	74.8%	13.8 nM	O=S(=O)(Nc1ccc2c(c1)CCNC2)c1cccc2ccccc12 [Example 1, Naphthalene-1-sulfonic acid (1,2,3,4-tetrahydroisoquinolin-6-yl)-amide hydrochloride]
53.6%	86.8%	12.6 ± 1.1 nM	O=S(=O)(Nc1ccc2c(c1)CCNC2)c1cc2ccccc2s1 [Example 24, Benzo[b]thiophene-2-sulfonic acid (1,2,3,4-tetrahydro-isoquinolin-6-yl)-amide hydrochloride]
37.4%	74.6%		O=S(=O)(Nc1ccc2c(c1)CCNC2)c1ccc2ccccc2c1 [Example 8, Naphthalene-2-sulfonic acid (1,2,3,4-tetrahydro-isoquinolin-6-yl)-amide hydrochloride]
30.7%	28.8%	1.3 nM	CC(C)(C)OC(=O)N1CCc2cc(NS(=O)(=O)c3cccc4ccccc34)ccc2C1 [Example 13, 6-(Naphthalene-1-sulfonylamino)-3,4-dihydro-1H-isoquinoline-2-carboxylic acid tert-butyl ester]
89%	86.4%	2.4 ± 0.5 nM	O=S(=O)(Nc1ccc2c(c1)CNCC2)c1ccccc1-c1ccccc1 [Example 62, Biphenyl-2-sulfonic acid (1,2,3,4-tetrahydro-isoquinolin-7-yl)-amide hydrochloride]
70%	83.6%	6.5 ± 0.5 nM	O=S(=O)(Nc1ccc2c(c1)CNCC2)c1ccc(F)c2ccccc12 [Example 80, 4-Fluoro-naphthalene-1-sulfonic acid (1,2,3,4-tetrahydro-isoquinolin-7-yl)-amide hydrochloride]
80.3%	92.2%	13.3 nM	Cc1ccc(S(=O)(=O)Nc2ccc3c(c2)CCN(C)C3)c2ccccc12 [Example 7, 4-Methyl-naphthalene-1-sulfonic acid (2-methyl-1,2,3,4-tetrahydro-isoqui-nolin-6-yl)amide hydrochloride]
60.1%	88.8%	14.5 ± 3.8 nM	Cc1ccc(S(=O)(=O)Nc2ccc3c(c2)CCNC3)c2ccccc12 [Example 6, 4-Methyl-naphthalene-1-sulfonic acid (1,2,3,4-tetrahydro-isoquinolin-6-yl)amide hydrochloride]
74.2%	90%	2.3 ± 0.2 nM	CN1CCc2cc(NS(=O)(=O)c3c(Cl)nc4sccn34)ccc2C1 [Example 19, 6-Chloro-imidazo[2,1-b]thiazole-5-sulfonic acid (2-methyl-1,2,3,4tetrahydro-isoquinolin-6-yl)-amide hydrochloride]
78.9%	88.4%	6.1 ± 0.7 nM	CCc1ccc(OC)c(S(=O)(=O)Nc2ccc3c(c2)CNCC3)c1 [Example 86, 5-Ethyl-2-methoxy-N-(1,2,3,4-tetrahydro-isoquinolin-7-yl)-benzenesulfonamide hydrochloride]
78.2%	88.9%	9.3 ± 2.2 nM	O=S(=O)(Nc1ccc2c(c1)CCNC2)c1cccc2c(Cl)cccc12 [Example 42, 5-Chloro-naphthalene-1-sulfonic acid (1,2,3,4-tetrahydro-isoquinolin-6-yl)-amide hydrochloride]
